In ChEMBL document CHEMBL4715855, “N-phenyl ureidobenzenesulfonates, a novel class of promising human dihydroorotate dehydrogenase inhibitors” (Bioorg Med Chem, 2020):
pIC50: −log10 of the molar value.

Legend:
Format in all cases: functional, cell-based
M21 = assay: Antiproliferative activity against human M21 cells assessed as cell growth inhibition measured after 48 hrs by SRB assay; settings: M21, 48 h
MCF7 = assay: Antiproliferative activity against human MCF7 cells assessed as cell growth inhibition measured after 48 hrs in presence of uridine by SRB assay; settings: MCF7, 48 h
HT-1080 = assay: Antiproliferative activity against human HT-1080 cells assessed as cell growth inhibition measured after 48 hrs by SRB assay; settings: HT-1080, 48 h
CCRF-CEM = assay: Antiproliferative activity against human CCRF-CEM cells assessed as cell growth inhibition measured after 48 hrs by sulforhodamine B assay
MOLT-4 = assay: Antiproliferative activity against human MOLT-4 cells assessed as cell growth inhibition measured after 48 hrs by sulforhodamine B assay; settings: MOLT-4, 48 h
RPMI-8226 = assay: Antiproliferative activity against human RPMI-8226 cells assessed as cell growth inhibition measured after 48 hrs by sulforhodamine B assay; settings: RPMI-8226, 48 h
SR = assay: Antiproliferative activity against human SR cells assessed as cell growth inhibition measured after 48 hrs by sulforhodamine B assay
A549 = assay: Antiproliferative activity against human A549/ATCC cells assessed as cell growth inhibition measured after 48 hrs by sulforhodamine B assay; settings: A549, 48 h
HOP-62 = assay: Antiproliferative activity against human HOP-62 cells assessed as cell growth inhibition measured after 48 hrs by sulforhodamine B assay; settings: HOP-62, 48 h
NCI-H322M = assay: Antiproliferative activity against human NCI-H322M cells assessed as cell growth inhibition measured after 48 hrs by sulforhodamine B assay
NCI-H460 = assay: Antiproliferative activity against human NCI-H460 cells assessed as cell growth inhibition measured after 48 hrs by sulforhodamine B assay; settings: NCI-H460, 48 h
NCI-H522 = assay: Antiproliferative activity against human NCI-H522 cells assessed as cell growth inhibition measured after 48 hrs by sulforhodamine B assay; settings: NCI-H522, 48 h
COLO 205 = assay: Antiproliferative activity against human COLO 205 cells assessed as cell growth inhibition measured after 48 hrs by sulforhodamine B assay; settings: COLO 205, 48 h
HCC 2998 = assay: Antiproliferative activity against human HCC 2998 cells assessed as cell growth inhibition measured after 48 hrs by sulforhodamine B assay; settings: HCC 2998, 48 h
HCT-15 = assay: Antiproliferative activity against human HCT-15 cells assessed as cell growth inhibition measured after 48 hrs by sulforhodamine B assay; settings: HCT-15, 48 h
786-0 = assay: Antiproliferative activity against human 786-0 cells assessed as cell growth inhibition measured after 48 hrs by sulforhodamine B assay; settings: 786-0, 48 h
A498 = assay: Antiproliferative activity against human A498 cells assessed as cell growth inhibition measured after 48 hrs by sulforhodamine B assay; settings: A498, 48 h
SN12C = assay: Antiproliferative activity against human SN12C cells assessed as cell growth inhibition measured after 48 hrs by sulforhodamine B assay
TK-10 = assay: Antiproliferative activity against human TK-10 cells assessed as cell growth inhibition measured after 48 hrs by sulforhodamine B assay; settings: TK-10, 48 h
UO-31 = assay: Antiproliferative activity against human UO-31 cells assessed as cell growth inhibition measured after 48 hrs by sulforhodamine B assay; settings: UO-31, 48 h
SF-295 = assay: Antiproliferative activity against human SF-295 cells assessed as cell growth inhibition measured after 48 hrs by sulforhodamine B assay; settings: SF-295, 48 h
SF-539 = assay: Antiproliferative activity against human SF-539 cells assessed as cell growth inhibition measured after 48 hrs by sulforhodamine B assay; settings: SF-539, 48 h
U-251 = assay: Antiproliferative activity against human U-251 cells assessed as cell growth inhibition measured after 48 hrs by sulforhodamine B assay; settings: U-251, 48 h
LOX IMVI = assay: Antiproliferative activity against human LOX IMVI cells assessed as cell growth inhibition measured after 48 hrs by sulforhodamine B assay
Malme-3M = assay: Antiproliferative activity against human Malme-3M cells assessed as cell growth inhibition measured after 48 hrs by sulforhodamine B assay
M14 = assay: Antiproliferative activity against human M14 cells assessed as cell growth inhibition measured after 48 hrs by sulforhodamine B assay; settings: M14, 48 h
MDA-MB-435 = assay: Antiproliferative activity against human MDA-MB-435 cells assessed as cell growth inhibition measured after 48 hrs by sulforhodamine B assay; settings: MDA-MB-435, 48 h
SK-MEL-2 = assay: Antiproliferative activity against human SK-MEL-2 cells assessed as cell growth inhibition measured after 48 hrs by sulforhodamine B assay; settings: SK-MEL-2, 48 h
SK-MEL-28 = assay: Antiproliferative activity against human SK-MEL-28 cells assessed as cell growth inhibition measured after 48 hrs by sulforhodamine B assay; settings: SK-MEL-28, 48 h
SK-MEL-5 = assay: Antiproliferative activity against human SK-MEL-5 cells assessed as cell growth inhibition measured after 48 hrs by sulforhodamine B assay; settings: SK-MEL-5, 48 h
UACC-257 = assay: Antiproliferative activity against human UACC-257 cells assessed as cell growth inhibition measured after 48 hrs by sulforhodamine B assay; settings: UACC-257, 48 h
IGROV-1 = assay: Antiproliferative activity against human IGROV-1 cells assessed as cell growth inhibition measured after 48 hrs by sulforhodamine B assay; settings: IGROV-1, 48 h
OVCAR-4 = assay: Antiproliferative activity against human OVCAR-4 cells assessed as cell growth inhibition measured after 48 hrs by sulforhodamine B assay; settings: OVCAR-4, 48 h
OVCAR-5 = assay: Antiproliferative activity against human OVCAR-5 cells assessed as cell growth inhibition measured after 48 hrs by sulforhodamine B assay; settings: OVCAR-5, 48 h
OVCAR-8 = assay: Antiproliferative activity against human OVCAR-8 cells assessed as cell growth inhibition measured after 48 hrs by sulforhodamine B assay; settings: OVCAR-8, 48 h
NCI/ADR-RES = assay: Antiproliferative activity against human NCI/ADR-RES cells assessed as cell growth inhibition measured after 48 hrs by sulforhodamine B assay
SK-OV-3 = assay: Antiproliferative activity against human SK-OV-3 cells assessed as cell growth inhibition measured after 48 hrs by sulforhodamine B assay; settings: SK-OV-3, 48 h
Hs-578T = assay: Antiproliferative activity against human Hs-578T cells assessed as cell growth inhibition measured after 48 hrs by sulforhodamine B assay
BT-549 = assay: Antiproliferative activity against human BT-549 cells assessed as cell growth inhibition measured after 48 hrs by sulforhodamine B assay; settings: BT-549, 48 h
PC-3 = assay: Antiproliferative activity against human PC-3 cells assessed as cell growth inhibition measured after 48 hrs by sulforhodamine B assay; settings: PC-3, 48 h
DU-145 = assay: Antiproliferative activity against human DU-145 cells assessed as cell growth inhibition measured after 48 hrs by sulforhodamine B assay; settings: DU-145, 48 h

## CCNC(=O)Nc1ccc(S(=O)(=O)Oc2ccccc2CC)cc1
M21
  pIC50: 5.52
MCF7
  pIC50: 4.74
HT-1080
  pIC50: 6.35
CCRF-CEM
  pIC50: 6.04
MOLT-4
  pIC50: 6.55
RPMI-8226
  pIC50: 5.86
SR
  pIC50: 6.13
A549
  pIC50: 6.02
HOP-62
  pIC50: 4.84
NCI-H322M
  pIC50: 4.89
NCI-H460
  pIC50: 6.37
NCI-H522
  pIC50: 5.88
COLO 205
  pIC50: 5.60
HCC 2998
  pIC50: 4.77
HCT-15
  pIC50: 6.60
786-0
  pIC50: 5.04
A498
  pIC50: 5.23
SN12C
  pIC50: 5.14
TK-10
  pIC50: 4.88
UO-31
  pIC50: 5.22
SF-295
  pIC50: 6.12
SF-539
  pIC50: 5.67
U-251
  pIC50: 6.21
LOX IMVI
  pIC50: 6.38
Malme-3M
  pIC50: 4.75
M14
  pIC50: 5.38
MDA-MB-435
  pIC50: 5.35
SK-MEL-2
  pIC50: 4.79
SK-MEL-28
  pIC50: 4.93
SK-MEL-5
  pIC50: 5.61
UACC-257
  pIC50: 4.88
IGROV-1
  pIC50: 5.23
OVCAR-4
  pIC50: 4.65
OVCAR-5
  pIC50: 4.64
OVCAR-8
  pIC50: 6.07
NCI/ADR-RES
  pIC50: 5.45
SK-OV-3
  pIC50: 4.90
Hs-578T
  pIC50: 4.95
BT-549
  pIC50: 4.93
PC-3
  pIC50: 6.08
DU-145
  pIC50: 5.91

## Cc1c(-c2ccc(-c3ccccc3F)cc2)nc2ccc(F)cc2c1C(=O)O [BREQUINAR]
M21
  pIC50: 6.24
MCF7
  pIC50: 4.60
HT-1080
  pIC50: 6.68
CCRF-CEM
  pIC50: 6.55
MOLT-4
  pIC50: 7.05
RPMI-8226
  pIC50: 6.43
SR
  pIC50: 6.37
A549
  pIC50: 6.63
HOP-62
  pIC50: 5.96
NCI-H322M
  pIC50: 4.82
NCI-H460
  pIC50: 6.89
NCI-H522
  pIC50: 5.70
COLO 205
  pIC50: 6.29
HCC 2998
  pIC50: 5.02
HCT-15
  pIC50: 7.25
786-0
  pIC50: 6.71
A498
  pIC50: 4.30
SN12C
  pIC50: 5.75
TK-10
  pIC50: 4.79
UO-31
  pIC50: 5.94
SF-295
  pIC50: 6.62
SF-539
  pIC50: 6.46
U-251
  pIC50: 6.71
LOX IMVI
  pIC50: 7.03
Malme-3M
  pIC50: 4.81
M14
  pIC50: 5.33
MDA-MB-435
  pIC50: 6.43
SK-MEL-2
  pIC50: 4.21
SK-MEL-28
  pIC50: 5.00
SK-MEL-5
  pIC50: 5.86
UACC-257
  pIC50: 4.90
IGROV-1
  pIC50: 6.52
OVCAR-4
  pIC50: 5.56
OVCAR-5
  pIC50: 4.41
OVCAR-8
  pIC50: 6.49
NCI/ADR-RES
  pIC50: 5.66
SK-OV-3
  pIC50: 4.79
Hs-578T
  pIC50: 5.16
BT-549
  pIC50: 4.24
PC-3
  pIC50: 6.12
DU-145
  pIC50: 6.58
